In brackets after ≈: the same amount, converted by molar mass.
System: Mycobacterium tuberculosis
Test: In vitro anti-mycobacterial activity against Mycobacterium tuberculosis H37Rv
Assay type: functional

SMILES | MIC [µg/mL]
NNC(=O)c1ccncc1 [ISONIAZID] | 0.025 (≈ 0.182 µM)
CO[C@H]1/C=C/O[C@@]2(C)Oc3c(C)c(O)c4c(O)c(c(/C=N/N5CCN(C)CC5)c(O)c4c3C2=O)NC(=O)/C(C)=C\C=C\[C@H](C)[C@H](O)[C@@H](C)[C@@H](O)[C@@H](C)[C@H](OC(C)=O)[C@@H]1C [RIFAMPIN] | 0.06 (≈ 0.0729 µM)

Reference: ChEMBL document CHEMBL1134158, “Antimycobacterial in vitro activity of cobalt(II) isonicotinoylhydrazone complexes. Part 10” (2001)
